From US20050090398A1, “Novel tetrazole derivative useful as herbicides” (priority 2002, published 2005)

Columns and labels:
Test in all cases: Test of post-emergence foliage treatment against field weeds
Format in all cases: in vivo
Conditions in all cases: post-emergence foliage treatment at 2-leaf stage, 2.0 kg/ha effective component, examined 3 weeks after treatment
Amaranthus retroflexus = system: Amaranthus retroflexus
Procedure: (§1) Preparation of formulation of the active compound • Carrier: Acetone 5 parts by weight • Emulsifier: Benzyloxy polyglycol ether 1 part by weight
(§2) A formulation of an active substance is obtained as an emulsifiable concentrate by mixing 1 part by weight of the active compound with the above-mentioned amount of the carrier and emulsifier. A prescribed amount of the formulation is diluted with water.
(§3) In a green house, seeds of Echinochloa crusgalli, Setaria viridis, Amaranthus retro-flexus and Polygonum were sown in a 120 cm^2 pot filled with field soil and covered with soil. 10 days after the sowing and soil covering (weeds were 2-leaf stage in average) a diluted solution of the prescribed chemical amount prepared in the same manner as in the above-mentioned Test Example 1 was spread uniformly on the foliage of the test plants in each test pot. The herbicidal effect was examined 3 weeks after the treatment.

Polygonum = system: Polygonum
Procedure: as §1, §2, §3

Setaria viridis = system: Setaria viridis
Procedure: as §1, §2, §3

Echinochloa crusgalli = system: Echinochloa crusgalli
Procedure: as §1, §2, §3

CS(=O)(=O)c1ccc(C(=O)C2C(=O)CCCC2=O)c(Cl)c1OCCn1cnnn1 [compound 715]
90%: herbicidal activity against Amaranthus retroflexus (Amaranthus retroflexus) | herbicidal activity against Polygonum (Polygonum) | herbicidal activity against Setaria viridis (Setaria viridis) | herbicidal activity against Echinochloa crusgalli (Echinochloa crusgalli)

O=C1CCCC(Cl)=C1C(=O)c1ccc(Cl)c(OCCn2cnnn2)c1Cl [compound 258]
90%: herbicidal activity against Amaranthus retroflexus (Amaranthus retroflexus) | herbicidal activity against Polygonum (Polygonum) | herbicidal activity against Setaria viridis (Setaria viridis) | herbicidal activity against Echinochloa crusgalli (Echinochloa crusgalli)

Cc1nnn(CCOc2c(Cl)ccc(C(=O)C3C(=O)CC(C)(C)CC3=O)c2Cl)n1 [compound 2081]
90%: herbicidal activity against Amaranthus retroflexus (Amaranthus retroflexus) | herbicidal activity against Polygonum (Polygonum) | herbicidal activity against Setaria viridis (Setaria viridis) | herbicidal activity against Echinochloa crusgalli (Echinochloa crusgalli)

Cc1nnnn1CCOc1c(Cl)ccc(C(=O)C2C(=O)CCCC2=O)c1Cl [compound 275]
90%: herbicidal activity against Amaranthus retroflexus (Amaranthus retroflexus) | herbicidal activity against Polygonum (Polygonum) | herbicidal activity against Setaria viridis (Setaria viridis) | herbicidal activity against Echinochloa crusgalli (Echinochloa crusgalli)

CCn1ncc(C(=O)c2ccc([N+](=O)[O-])c(OCCn3cnnn3)c2C)c1O [compound 1693]
90%: herbicidal activity against Amaranthus retroflexus (Amaranthus retroflexus) | herbicidal activity against Polygonum (Polygonum) | herbicidal activity against Setaria viridis (Setaria viridis) | herbicidal activity against Echinochloa crusgalli (Echinochloa crusgalli)

CS(=O)(=O)c1ccc(C(=O)C2=C(Cl)CCCC2=O)c(Cl)c1Cn1ncnn1 [compound 2347]
90%: herbicidal activity against Amaranthus retroflexus (Amaranthus retroflexus) | herbicidal activity against Polygonum (Polygonum) | herbicidal activity against Setaria viridis (Setaria viridis) | herbicidal activity against Echinochloa crusgalli (Echinochloa crusgalli)

O=C1CCCC(Cl)=C1C(=O)c1ccc(Cl)c(OCCn2ncnn2)c1Cl [compound 2063]
90%: herbicidal activity against Amaranthus retroflexus (Amaranthus retroflexus) | herbicidal activity against Polygonum (Polygonum) | herbicidal activity against Setaria viridis (Setaria viridis) | herbicidal activity against Echinochloa crusgalli (Echinochloa crusgalli)

O=C1CCCC(=O)C1C(=O)c1ccc(Cl)c(OCCn2cnnn2)c1Cl [compound 212]
90%: herbicidal activity against Amaranthus retroflexus (Amaranthus retroflexus) | herbicidal activity against Polygonum (Polygonum) | herbicidal activity against Setaria viridis (Setaria viridis) | herbicidal activity against Echinochloa crusgalli (Echinochloa crusgalli)

O=C(c1ccc(Br)c(OCCn2cnnn2)c1Br)C1C(=O)C2CCC(C2)C1=O (stereo not shown) [compound 1239]
90%: herbicidal activity against Amaranthus retroflexus (Amaranthus retroflexus) | herbicidal activity against Polygonum (Polygonum) | herbicidal activity against Setaria viridis (Setaria viridis) | herbicidal activity against Echinochloa crusgalli (Echinochloa crusgalli)

CSc1nnnn1Cc1c(S(C)(=O)=O)ccc(C(=O)C2C(=O)CCCC2=O)c1Cl [compound 650]
90%: herbicidal activity against Amaranthus retroflexus (Amaranthus retroflexus) | herbicidal activity against Polygonum (Polygonum) | herbicidal activity against Setaria viridis (Setaria viridis) | herbicidal activity against Echinochloa crusgalli (Echinochloa crusgalli)

CS(=O)(=O)c1ccc(C(=O)C2C(=O)CCCC2=O)c(Cl)c1Cn1ncnn1 [compound 2301]
90%: herbicidal activity against Amaranthus retroflexus (Amaranthus retroflexus) | herbicidal activity against Polygonum (Polygonum) | herbicidal activity against Setaria viridis (Setaria viridis) | herbicidal activity against Echinochloa crusgalli (Echinochloa crusgalli)

CS(=O)(=O)c1ccc(C(=O)C2C(=O)CCCC2=O)c(Cl)c1Cn1cnnn1 [compound 495]
90%: herbicidal activity against Amaranthus retroflexus (Amaranthus retroflexus) | herbicidal activity against Polygonum (Polygonum) | herbicidal activity against Setaria viridis (Setaria viridis) | herbicidal activity against Echinochloa crusgalli (Echinochloa crusgalli)

CCn1ncc(C(=O)c2ccc(Cl)c(OCCn3cnnn3)c2Cl)c1O [compound 272]
90%: herbicidal activity against Amaranthus retroflexus (Amaranthus retroflexus) | herbicidal activity against Polygonum (Polygonum) | herbicidal activity against Setaria viridis (Setaria viridis) | herbicidal activity against Echinochloa crusgalli (Echinochloa crusgalli)

CCn1ncc(C(=O)c2ccc(Br)c(OCCn3cnnn3)c2C)c1O [compound 1593]
90%: herbicidal activity against Amaranthus retroflexus (Amaranthus retroflexus) | herbicidal activity against Polygonum (Polygonum) | herbicidal activity against Setaria viridis (Setaria viridis) | herbicidal activity against Echinochloa crusgalli (Echinochloa crusgalli)

O=C(c1ccc(Br)c(OCCn2ncnn2)c1Br)C1C(=O)C2CCC(C2)C1=O (stereo not shown) [compound 3043]
90%: herbicidal activity against Amaranthus retroflexus (Amaranthus retroflexus) | herbicidal activity against Polygonum (Polygonum) | herbicidal activity against Setaria viridis (Setaria viridis) | herbicidal activity against Echinochloa crusgalli (Echinochloa crusgalli)

O=C1CCCC(=O)C1C(=O)c1ccc(Br)c(OCCn2ncnn2)c1Br [compound 3038]
90%: herbicidal activity against Amaranthus retroflexus (Amaranthus retroflexus) | herbicidal activity against Polygonum (Polygonum) | herbicidal activity against Setaria viridis (Setaria viridis) | herbicidal activity against Echinochloa crusgalli (Echinochloa crusgalli)

CCn1ncc(C(=O)c2ccc(Cl)c(OCCn3ncnn3)c2Cl)c1O [compound 2077]
90%: herbicidal activity against Amaranthus retroflexus (Amaranthus retroflexus) | herbicidal activity against Polygonum (Polygonum) | herbicidal activity against Setaria viridis (Setaria viridis) | herbicidal activity against Echinochloa crusgalli (Echinochloa crusgalli)

CC1(C)CC(=O)C(C(=O)c2ccc(Cl)c(OCCn3cnnn3)c2Cl)C(=O)C1 [compound 213]
90%: herbicidal activity against Amaranthus retroflexus (Amaranthus retroflexus) | herbicidal activity against Polygonum (Polygonum) | herbicidal activity against Setaria viridis (Setaria viridis) | herbicidal activity against Echinochloa crusgalli (Echinochloa crusgalli)

O=C1CCCC(=O)C1C(=O)c1ccc(Cl)c(OCCn2ncnn2)c1Cl [compound 2017]
90%: herbicidal activity against Amaranthus retroflexus (Amaranthus retroflexus) | herbicidal activity against Polygonum (Polygonum) | herbicidal activity against Setaria viridis (Setaria viridis) | herbicidal activity against Echinochloa crusgalli (Echinochloa crusgalli)

CS(=O)(=O)c1ccc(C(=O)C2C(=O)CCCC2=O)c(Cl)c1OCCn1ncnn1 [compound 2521]
90%: herbicidal activity against Amaranthus retroflexus (Amaranthus retroflexus) | herbicidal activity against Polygonum (Polygonum) | herbicidal activity against Setaria viridis (Setaria viridis) | herbicidal activity against Echinochloa crusgalli (Echinochloa crusgalli)

O=C1CCCC(=O)C1C(=O)c1ccc(Br)c(OCCn2cnnn2)c1Br [compound 1234]
90%: herbicidal activity against Amaranthus retroflexus (Amaranthus retroflexus) | herbicidal activity against Polygonum (Polygonum) | herbicidal activity against Setaria viridis (Setaria viridis) | herbicidal activity against Echinochloa crusgalli (Echinochloa crusgalli)

O=C(c1ccc(Cl)c(OCCn2ncnn2)c1Cl)C1C(=O)C2CCC(C2)C1=O (stereo not shown) [compound 2022]
90%: herbicidal activity against Amaranthus retroflexus (Amaranthus retroflexus) | herbicidal activity against Polygonum (Polygonum) | herbicidal activity against Setaria viridis (Setaria viridis) | herbicidal activity against Echinochloa crusgalli (Echinochloa crusgalli)
